From the NIST ThermoML archive (doi:10.1016/j.jct.2016.03.036)
Values joined by “and” are separate entries in the source; they are usually repeats but may differ in a detail not shown here. Equal entries are not always repeated. ± gives the expanded uncertainty stated by the source.

Assay: xn = mol fraction of the nth substance listed
Conditions: Gas, Spherical resonator

**Q.** For `[Ar]` [argon] + O=C=O, which speed of sound (350.01 K, 487.4 kPa, x2 = 0.501) is on record?
**A.** 308.87 ± 0.52 m/s

**Q.** And the speed of sound (350.01 K, 500.81 kPa, x2 = 0.7498)?
**A.** 296.88 ± 0.5 m/s

**Q.** And the speed of sound (350.01 K, 1987.2 kPa, x2 = 0.7498)?
**A.** 293.21 ± 0.49 m/s

**Q.** And the speed of sound (350.01 K, 1987.3 kPa, x2 = 0.7498)?
**A.** 293.13 ± 0.49 m/s

**Q.** What about the speed of sound (350.01 K, 1987.4 kPa, x2 = 0.7498) of the same molecule?
**A.** 293.08 ± 0.49 m/s

**Q.** And the speed of sound (350.01 K, 1989.8 kPa, x2 = 0.501)?
**A.** 307.6 ± 0.52 m/s and 307.57 ± 0.52 m/s

**Q.** What about the speed of sound (350.01 K, 1990 kPa, x2 = 0.501) of the same molecule?
**A.** 307.46 ± 0.52 m/s

**Q.** What about the speed of sound (350.01 K, 4001.2 kPa, x2 = 0.501) of the same molecule?
**A.** 306.39 ± 0.52 m/s and 306.37 ± 0.51 m/s

**Q.** What about the speed of sound (350.01 K, 4001.5 kPa, x2 = 0.501) of the same molecule?
**A.** 306.3 ± 0.51 m/s

**Q.** And the speed of sound (350.01 K, 4010.3 kPa, x2 = 0.7498)?
**A.** 288.58 ± 0.49 m/s and 288.52 ± 0.54 m/s

**Q.** And the speed of sound (350.01 K, 4010.6 kPa, x2 = 0.7498)?
**A.** 288.5 ± 0.49 m/s

**Q.** What about the speed of sound (350.01 K, 6002.2 kPa, x2 = 0.501) of the same molecule?
**A.** 305.92 ± 0.51 m/s and 305.92 ± 0.52 m/s

**Q.** What about the speed of sound (350.01 K, 6002.6 kPa, x2 = 0.501) of the same molecule?
**A.** 305.94 ± 0.51 m/s

**Q.** What about the speed of sound (350.01 K, 6017.8 kPa, x2 = 0.7498) of the same molecule?
**A.** 284.82 ± 0.48 m/s and 284.81 ± 0.48 m/s

**Q.** What about the speed of sound (350.01 K, 6018.2 kPa, x2 = 0.7498) of the same molecule?
**A.** 284.8 ± 0.48 m/s

**Q.** What about the speed of sound (350.01 K, 7290.6 kPa, x2 = 0.501) of the same molecule?
**A.** 306.26 ± 0.52 m/s and 306.02 ± 0.56 m/s

**Q.** What about the speed of sound (350.01 K, 7291.2 kPa, x2 = 0.501) of the same molecule?
**A.** 306.19 ± 0.51 m/s

**Q.** And the speed of sound (350.01 K, 8200.3 kPa, x2 = 0.7498)?
**A.** 282.09 ± 0.48 m/s and 282.08 ± 0.48 m/s

**Q.** What about the speed of sound (350.01 K, 8201 kPa, x2 = 0.7498) of the same molecule?
**A.** 282.12 ± 0.48 m/s

**Q.** And the speed of sound (400.13 K, 501.93 kPa, x2 = 0.7498)?
**A.** 316.14 ± 0.53 m/s

**Q.** And the speed of sound (400.13 K, 1988.1 kPa, x2 = 0.7498)?
**A.** 314.38 ± 0.53 m/s and 314.32 ± 0.54 m/s

**Q.** And the speed of sound (400.13 K, 1988.3 kPa, x2 = 0.7498)?
**A.** 314.31 ± 0.53 m/s

**Q.** What about the speed of sound (400.13 K, 4018.3 kPa, x2 = 0.7498) of the same molecule?
**A.** 312.3 ± 0.52 m/s and 312.25 ± 0.53 m/s

**Q.** And the speed of sound (400.13 K, 4018.6 kPa, x2 = 0.7498)?
**A.** 312.17 ± 0.52 m/s

**Q.** And the speed of sound (400.13 K, 6013.1 kPa, x2 = 0.7498)?
**A.** 310.98 ± 0.52 m/s and 310.94 ± 0.52 m/s

**Q.** And the speed of sound (400.13 K, 6013.5 kPa, x2 = 0.7498)?
**A.** 310.89 ± 0.52 m/s

**Q.** And the speed of sound (400.13 K, 7954.4 kPa, x2 = 0.7498)?
**A.** 310.44 ± 0.52 m/s

**Q.** What about the speed of sound (400.13 K, 7954.5 kPa, x2 = 0.7498) of the same molecule?
**A.** 310.43 ± 0.52 m/s

**Q.** What about the speed of sound (400.13 K, 7955.1 kPa, x2 = 0.7498) of the same molecule?
**A.** 310.44 ± 0.52 m/s

**Q.** And the speed of sound (400.19 K, 2000.8 kPa, x2 = 0.501)?
**A.** 328.69 ± 0.55 m/s and 328.63 ± 0.55 m/s

**Q.** What about the speed of sound (400.19 K, 2000.9 kPa, x2 = 0.501) of the same molecule?
**A.** 328.52 ± 0.55 m/s

**Q.** And the speed of sound (400.2 K, 451.92 kPa, x2 = 0.501)?
**A.** 328.79 ± 0.55 m/s

**Q.** And the speed of sound (400.2 K, 4008.7 kPa, x2 = 0.501)?
**A.** 328.95 ± 0.55 m/s and 329.02 ± 0.55 m/s

**Q.** And the speed of sound (400.2 K, 4009 kPa, x2 = 0.501)?
**A.** 328.85 ± 0.55 m/s

**Q.** What about the speed of sound (400.2 K, 5980.4 kPa, x2 = 0.501) of the same molecule?
**A.** 329.82 ± 0.7 m/s and 329.89 ± 0.55 m/s

**Q.** And the speed of sound (400.2 K, 5980.8 kPa, x2 = 0.501)?
**A.** 329.73 ± 0.55 m/s

**Q.** What about the speed of sound (400.2 K, 7411 kPa, x2 = 0.501) of the same molecule?
**A.** 330.82 ± 0.55 m/s

**Q.** And the speed of sound (400.2 K, 7411.2 kPa, x2 = 0.501)?
**A.** 330.79 ± 0.55 m/s

**Q.** What about the speed of sound (400.2 K, 7411.7 kPa, x2 = 0.501) of the same molecule?
**A.** 330.75 ± 0.55 m/s

**Q.** What about the speed of sound (500.46 K, 1988.3 kPa, x2 = 0.501) of the same molecule?
**A.** 365.88 ± 0.65 m/s and 365.86 ± 0.68 m/s

**Q.** What about the speed of sound (500.46 K, 1988.4 kPa, x2 = 0.501) of the same molecule?
**A.** 365.73 ± 0.61 m/s

**Q.** What about the speed of sound (500.46 K, 4007.9 kPa, x2 = 0.501) of the same molecule?
**A.** 367.67 ± 0.61 m/s and 367.61 ± 0.62 m/s

**Q.** And the speed of sound (500.46 K, 4008.1 kPa, x2 = 0.501)?
**A.** 367.56 ± 0.61 m/s

**Q.** What about the speed of sound (500.46 K, 6008.3 kPa, x2 = 0.501) of the same molecule?
**A.** 369.75 ± 0.61 m/s and 369.73 ± 0.69 m/s

**Q.** And the speed of sound (500.46 K, 6008.7 kPa, x2 = 0.501)?
**A.** 369.69 ± 0.61 m/s

**Q.** And the speed of sound (500.46 K, 7264.4 kPa, x2 = 0.501)?
**A.** 371.24 ± 0.61 m/s and 371.28 ± 0.61 m/s

**Q.** What about the speed of sound (500.46 K, 7264.8 kPa, x2 = 0.501) of the same molecule?
**A.** 371.19 ± 0.61 m/s

**Q.** What about the speed of sound (500.48 K, 501.81 kPa, x2 = 0.7498) of the same molecule?
**A.** 351 ± 0.58 m/s

**Q.** And the speed of sound (500.48 K, 2003.9 kPa, x2 = 0.7498)?
**A.** 351.19 ± 0.58 m/s and 351.23 ± 0.58 m/s

**Q.** And the speed of sound (500.48 K, 2004 kPa, x2 = 0.7498)?
**A.** 351.03 ± 0.58 m/s

**Q.** What about the speed of sound (500.48 K, 4010 kPa, x2 = 0.7498) of the same molecule?
**A.** 351.64 ± 0.58 m/s and 351.63 ± 0.58 m/s

**Q.** What about the speed of sound (500.48 K, 4010.3 kPa, x2 = 0.7498) of the same molecule?
**A.** 351.5 ± 0.58 m/s

**Q.** What about the speed of sound (500.48 K, 6000.8 kPa, x2 = 0.7498) of the same molecule?
**A.** 352.54 ± 0.59 m/s and 352.49 ± 0.66 m/s

**Q.** What about the speed of sound (500.48 K, 6001.2 kPa, x2 = 0.7498) of the same molecule?
**A.** 352.39 ± 0.59 m/s

**Q.** What about the speed of sound (500.49 K, 8007.4 kPa, x2 = 0.7498) of the same molecule?
**A.** 353.87 ± 0.59 m/s

**Q.** What about the speed of sound (500.49 K, 8007.5 kPa, x2 = 0.7498) of the same molecule?
**A.** 353.82 ± 0.59 m/s

**Q.** And the speed of sound (500.49 K, 8008 kPa, x2 = 0.7498)?
**A.** 353.78 ± 0.59 m/s

**Q.** And the speed of sound (500.5 K, 476.59 kPa, x2 = 0.501)?
**A.** 364.75 ± 0.6 m/s
